According to ChEMBL document CHEMBL1201862, “PubChem BioAssay data set” (2004):
Calls of active or inactive are those of the source.

What was measured:
[1] = target: Peroxisome proliferator-activated receptor gamma/Nuclear receptor coactivator 1 (Homo sapiens, UniProt P37231); assay: (§1) TR-FRET dose response biochemical High Throughput Screening assay for agonists of the steroid receptor coactivator 1 (SRC-1) recruitment by the peroxisome proliferator-activated receptor gamma (PPAR gamma): non-selective agonists. [Related pubchem assays (depositor defined):AID1300, AID1808, AID504735, AID631]; format: protein assay
[2] = target: Peroxisome proliferator-activated receptor gamma/Nuclear receptor corepressor 2 (Homo sapiens, UniProt P37231+Q9Y618); format: functional
[3] = target: Photoreceptor-specific nuclear receptor (Homo sapiens, UniProt Q9Y5X4); format: functional;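 further: potency for compounds that break the NR2E3 corepressor complex and count as activators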
[4] = target: Peroxisome proliferator-activated receptor gamma/Nuclear receptor coactivator 3 (Homo sapiens, UniProt P37231); assay: as §1, with “3 (SRC-3)” for “1 (SRC-1)”, “assays: 1301 (Confirmation screen.), 1048 (Primary screen.)]” for “assays (depositor defined):AID1300, AID1808, AID504735, AID631]”; format: functional
Peroxisome proliferator-activated receptor gamma/Nuclear receptor coactivator 3, sequence (P37231 whole entry): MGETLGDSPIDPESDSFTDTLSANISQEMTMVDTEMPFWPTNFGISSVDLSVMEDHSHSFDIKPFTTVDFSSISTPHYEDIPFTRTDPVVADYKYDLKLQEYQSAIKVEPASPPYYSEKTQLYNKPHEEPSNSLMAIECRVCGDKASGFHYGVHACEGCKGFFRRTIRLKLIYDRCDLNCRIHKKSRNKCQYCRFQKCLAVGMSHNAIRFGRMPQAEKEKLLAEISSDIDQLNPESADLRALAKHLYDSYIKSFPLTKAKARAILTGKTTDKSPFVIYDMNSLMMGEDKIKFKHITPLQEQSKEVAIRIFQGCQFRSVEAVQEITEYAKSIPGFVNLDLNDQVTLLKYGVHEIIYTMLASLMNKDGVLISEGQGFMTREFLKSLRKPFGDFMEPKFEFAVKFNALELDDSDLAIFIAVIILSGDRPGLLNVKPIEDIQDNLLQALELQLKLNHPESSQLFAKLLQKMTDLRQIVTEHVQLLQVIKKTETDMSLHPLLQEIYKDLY
Peroxisome proliferator-activated receptor gamma/Nuclear receptor coactivator 3, sequence (Q9Y6Q9 whole entry, further chain): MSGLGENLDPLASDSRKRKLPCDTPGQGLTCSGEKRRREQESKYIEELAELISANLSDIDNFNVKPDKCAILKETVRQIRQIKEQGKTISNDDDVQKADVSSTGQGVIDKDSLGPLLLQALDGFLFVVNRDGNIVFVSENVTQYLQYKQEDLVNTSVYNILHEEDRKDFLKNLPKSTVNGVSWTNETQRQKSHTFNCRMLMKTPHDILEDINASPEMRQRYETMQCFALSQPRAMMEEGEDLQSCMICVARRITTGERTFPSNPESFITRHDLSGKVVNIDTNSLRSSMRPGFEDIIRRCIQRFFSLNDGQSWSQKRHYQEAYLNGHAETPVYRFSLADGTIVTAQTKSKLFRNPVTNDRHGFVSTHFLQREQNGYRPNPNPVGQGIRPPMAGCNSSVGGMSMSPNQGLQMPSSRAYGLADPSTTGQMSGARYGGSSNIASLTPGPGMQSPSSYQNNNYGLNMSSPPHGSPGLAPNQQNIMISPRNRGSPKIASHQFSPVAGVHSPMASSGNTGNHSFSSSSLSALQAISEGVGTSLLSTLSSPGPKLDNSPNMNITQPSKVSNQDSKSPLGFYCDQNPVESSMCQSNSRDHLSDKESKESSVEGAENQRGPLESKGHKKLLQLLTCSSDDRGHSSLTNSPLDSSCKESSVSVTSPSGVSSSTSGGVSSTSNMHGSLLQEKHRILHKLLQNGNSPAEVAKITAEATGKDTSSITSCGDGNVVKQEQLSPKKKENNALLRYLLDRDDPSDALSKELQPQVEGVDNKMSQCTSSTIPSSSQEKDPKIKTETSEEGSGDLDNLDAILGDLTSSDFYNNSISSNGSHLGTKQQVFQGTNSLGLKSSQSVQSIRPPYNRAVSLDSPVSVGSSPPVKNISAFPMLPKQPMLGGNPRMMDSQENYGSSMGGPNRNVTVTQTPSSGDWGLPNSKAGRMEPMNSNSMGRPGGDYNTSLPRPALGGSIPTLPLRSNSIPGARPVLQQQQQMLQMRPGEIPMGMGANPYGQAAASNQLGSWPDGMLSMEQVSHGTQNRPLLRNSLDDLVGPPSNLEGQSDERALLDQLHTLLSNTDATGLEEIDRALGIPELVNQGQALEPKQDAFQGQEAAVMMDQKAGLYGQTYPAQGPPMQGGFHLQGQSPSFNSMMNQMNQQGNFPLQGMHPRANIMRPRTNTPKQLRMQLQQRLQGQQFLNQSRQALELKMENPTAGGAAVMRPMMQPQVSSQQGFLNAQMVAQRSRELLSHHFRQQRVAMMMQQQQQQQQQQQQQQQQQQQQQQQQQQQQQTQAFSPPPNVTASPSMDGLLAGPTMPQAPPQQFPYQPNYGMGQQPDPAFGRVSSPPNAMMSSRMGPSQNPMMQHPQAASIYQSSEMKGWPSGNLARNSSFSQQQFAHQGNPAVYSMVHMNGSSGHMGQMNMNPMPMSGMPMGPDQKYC

[5] = target: Peroxisome proliferator-activated receptor gamma/Nuclear receptor coactivator 2 (Homo sapiens, UniProt P37231); assay: TR-FRET dose response biochemical High Throughput Screening assay for agonists of the steroid receptor coactivator 2 (SRC-2) recruitment by the peroxisome proliferator-activated receptor gamma (PPAR gamma): non-selective agonists. [Related pubchem assays: 1297, 1032 ]; format: functional
[6] = target: Eukaryotic translation initiation factor 4E (Mus musculus, UniProt P63073); assay: blockers of eIF4G binding by eIF4E – biochemical, TR-FRET, dose response (AID 855); format: functional;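 further: potency for disrupting eIF4E binding to eIF4GI seen as loss of FRET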
Eukaryotic translation initiation factor 4E, sequence (P63073 whole entry): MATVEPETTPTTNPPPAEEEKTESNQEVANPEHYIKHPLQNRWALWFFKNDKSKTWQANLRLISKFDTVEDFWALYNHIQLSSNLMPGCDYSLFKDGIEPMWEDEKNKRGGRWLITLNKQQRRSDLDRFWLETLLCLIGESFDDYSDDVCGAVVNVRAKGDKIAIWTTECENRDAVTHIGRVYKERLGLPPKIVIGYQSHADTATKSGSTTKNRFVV

[7] = target: T1, Tyrosine-protein phosphatase non-receptor type 7 (Homo sapiens, UniProt P35236); format: functional
T1 sequence (P35236 whole entry): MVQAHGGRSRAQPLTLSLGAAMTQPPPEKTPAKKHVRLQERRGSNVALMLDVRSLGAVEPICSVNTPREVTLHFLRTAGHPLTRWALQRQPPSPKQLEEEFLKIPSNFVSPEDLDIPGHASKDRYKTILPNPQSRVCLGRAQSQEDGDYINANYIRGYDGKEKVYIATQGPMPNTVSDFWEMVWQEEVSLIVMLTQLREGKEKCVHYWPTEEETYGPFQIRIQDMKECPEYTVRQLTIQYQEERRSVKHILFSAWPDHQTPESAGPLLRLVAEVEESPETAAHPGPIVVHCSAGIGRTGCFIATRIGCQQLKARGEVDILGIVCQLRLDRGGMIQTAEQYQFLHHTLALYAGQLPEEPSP

[8] = target: T2, Tyrosine-protein phosphatase non-receptor type 22 (Homo sapiens, UniProt Q9Y2R2); format: functional
T2 sequence (Q9Y2R2 whole entry): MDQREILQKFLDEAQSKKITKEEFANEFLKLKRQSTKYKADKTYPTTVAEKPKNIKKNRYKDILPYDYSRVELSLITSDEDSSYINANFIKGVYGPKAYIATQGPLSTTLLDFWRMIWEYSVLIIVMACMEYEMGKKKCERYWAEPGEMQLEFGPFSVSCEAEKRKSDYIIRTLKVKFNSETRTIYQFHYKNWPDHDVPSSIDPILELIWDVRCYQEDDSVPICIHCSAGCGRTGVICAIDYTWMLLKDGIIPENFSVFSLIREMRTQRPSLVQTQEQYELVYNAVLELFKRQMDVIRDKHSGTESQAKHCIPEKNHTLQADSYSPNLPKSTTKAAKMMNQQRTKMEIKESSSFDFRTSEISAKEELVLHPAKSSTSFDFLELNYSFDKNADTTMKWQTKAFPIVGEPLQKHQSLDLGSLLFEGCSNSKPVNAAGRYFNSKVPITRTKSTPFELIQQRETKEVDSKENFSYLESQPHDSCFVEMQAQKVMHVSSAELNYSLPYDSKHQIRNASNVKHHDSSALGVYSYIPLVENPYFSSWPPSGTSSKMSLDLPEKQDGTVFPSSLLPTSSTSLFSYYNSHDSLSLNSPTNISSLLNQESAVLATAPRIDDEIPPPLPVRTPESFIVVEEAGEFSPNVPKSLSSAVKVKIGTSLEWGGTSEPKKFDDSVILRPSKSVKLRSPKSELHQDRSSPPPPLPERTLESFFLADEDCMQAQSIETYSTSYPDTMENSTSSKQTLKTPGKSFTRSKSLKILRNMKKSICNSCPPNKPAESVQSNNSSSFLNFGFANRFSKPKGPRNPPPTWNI

[9] = target: T2, Tyrosine-protein phosphatase non-receptor type 22; format: functional; remark: listed apart in the source
[10] = target: T3, Alkaline phosphatase, tissue-nonspecific isozyme (Homo sapiens, UniProt P05186)
T3 sequence (P05186 whole entry): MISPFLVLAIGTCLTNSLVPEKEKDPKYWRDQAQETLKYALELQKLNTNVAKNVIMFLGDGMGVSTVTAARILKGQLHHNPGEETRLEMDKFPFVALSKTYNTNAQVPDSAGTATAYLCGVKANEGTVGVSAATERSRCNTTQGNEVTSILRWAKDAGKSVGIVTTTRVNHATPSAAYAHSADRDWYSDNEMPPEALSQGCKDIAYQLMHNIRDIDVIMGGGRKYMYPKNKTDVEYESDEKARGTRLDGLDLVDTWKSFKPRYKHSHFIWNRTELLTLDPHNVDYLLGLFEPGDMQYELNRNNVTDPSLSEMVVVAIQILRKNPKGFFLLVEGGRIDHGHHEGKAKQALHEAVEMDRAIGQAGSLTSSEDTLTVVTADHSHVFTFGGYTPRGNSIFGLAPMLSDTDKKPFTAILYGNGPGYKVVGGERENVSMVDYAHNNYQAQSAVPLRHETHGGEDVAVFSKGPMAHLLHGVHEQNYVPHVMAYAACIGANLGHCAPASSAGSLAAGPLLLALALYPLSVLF

[11] = target: Intestinal-type alkaline phosphatase (Mus musculus, UniProt P24822); assay: PubChem AID 488785; format: functional
Intestinal-type alkaline phosphatase (Mus musculus, UniProt P24822), sequence (P24822 whole entry): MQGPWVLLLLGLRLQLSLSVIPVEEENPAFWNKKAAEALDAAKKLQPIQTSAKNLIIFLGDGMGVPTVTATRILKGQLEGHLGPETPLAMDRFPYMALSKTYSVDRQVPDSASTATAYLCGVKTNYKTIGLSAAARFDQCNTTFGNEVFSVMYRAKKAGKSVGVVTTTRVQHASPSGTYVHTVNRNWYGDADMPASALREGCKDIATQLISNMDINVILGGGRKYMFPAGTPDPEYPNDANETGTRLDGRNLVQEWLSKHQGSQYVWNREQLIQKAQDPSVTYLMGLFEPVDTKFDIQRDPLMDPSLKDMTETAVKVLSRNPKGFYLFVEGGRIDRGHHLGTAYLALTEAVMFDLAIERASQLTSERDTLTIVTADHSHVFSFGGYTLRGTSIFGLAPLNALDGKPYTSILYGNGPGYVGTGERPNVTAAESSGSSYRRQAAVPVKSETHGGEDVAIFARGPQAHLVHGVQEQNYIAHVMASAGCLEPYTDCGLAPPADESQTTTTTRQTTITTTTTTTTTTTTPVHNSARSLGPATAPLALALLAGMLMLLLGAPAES

[12] = target: Intestinal-type alkaline phosphatase (Homo sapiens, UniProt P09923); assay: inhibition of human intestinal alkaline phosphatase – biochemical, dose response (AID 488876); format: functional
Intestinal-type alkaline phosphatase (Homo sapiens, UniProt P09923), sequence (P09923 whole entry): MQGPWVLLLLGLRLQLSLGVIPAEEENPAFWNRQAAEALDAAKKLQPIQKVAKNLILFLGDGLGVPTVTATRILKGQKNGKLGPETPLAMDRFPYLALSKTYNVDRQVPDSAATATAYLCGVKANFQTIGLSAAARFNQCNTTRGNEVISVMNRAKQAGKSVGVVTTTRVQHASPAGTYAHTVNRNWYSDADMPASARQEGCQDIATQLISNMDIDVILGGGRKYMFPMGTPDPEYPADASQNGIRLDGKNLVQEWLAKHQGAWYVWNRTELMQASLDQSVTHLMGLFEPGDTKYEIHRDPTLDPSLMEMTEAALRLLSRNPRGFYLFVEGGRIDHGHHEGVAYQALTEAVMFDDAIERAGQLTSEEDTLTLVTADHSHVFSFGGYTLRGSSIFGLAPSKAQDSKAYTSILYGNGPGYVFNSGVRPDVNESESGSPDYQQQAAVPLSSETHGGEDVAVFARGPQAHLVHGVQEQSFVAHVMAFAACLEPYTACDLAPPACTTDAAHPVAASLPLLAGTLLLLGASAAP

[13] = target: T3, Alkaline phosphatase, tissue-nonspecific isozyme; assay: TNAP enzyme inhibition by screening hits, dose response, selectivity assay for mouse IAP inhibitor project, biochemical, human TNAP, uHTS hits (AID 488906); format: functional
Streptokinase A = target: T4, Streptokinase A (Streptococcus pyogenes serotype M1, UniProt P10520); assay: viability-normalized secreted streptokinase activity reduction – plasminogen activation absorbance, OD405, dose response (AID 1914); format: functional, Streptococcus pyogenes M1 GAS;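 further: secreted streptokinase activity via plasminogen activation per viability signal from cell pellet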
T4 sequence (P10520 whole entry): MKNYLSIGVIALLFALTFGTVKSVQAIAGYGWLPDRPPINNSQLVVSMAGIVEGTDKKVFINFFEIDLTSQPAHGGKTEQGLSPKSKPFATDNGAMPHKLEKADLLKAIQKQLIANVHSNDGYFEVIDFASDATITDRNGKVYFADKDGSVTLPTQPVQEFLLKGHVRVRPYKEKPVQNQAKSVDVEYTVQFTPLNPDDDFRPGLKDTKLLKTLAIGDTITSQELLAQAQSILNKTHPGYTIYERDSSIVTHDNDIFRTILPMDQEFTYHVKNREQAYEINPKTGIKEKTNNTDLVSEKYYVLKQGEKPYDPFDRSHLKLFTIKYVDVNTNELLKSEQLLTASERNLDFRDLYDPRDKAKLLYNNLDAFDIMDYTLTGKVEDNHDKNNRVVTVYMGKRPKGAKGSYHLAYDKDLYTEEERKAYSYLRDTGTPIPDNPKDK

SUMO-activating enzyme = SUMO-activating enzyme (Homo sapiens, UniProt Q9UBT2); assay: blockers of UBC9-mediated SUMO conjugation – biochemical, AlphaScreen, SUMOylation inhibitor project, confirmation (AID 2018); format: functional
[14] = target: T5, Kappa-type opioid receptor (Homo sapiens, UniProt P41145); format: functional
T5 sequence (P41145 whole entry): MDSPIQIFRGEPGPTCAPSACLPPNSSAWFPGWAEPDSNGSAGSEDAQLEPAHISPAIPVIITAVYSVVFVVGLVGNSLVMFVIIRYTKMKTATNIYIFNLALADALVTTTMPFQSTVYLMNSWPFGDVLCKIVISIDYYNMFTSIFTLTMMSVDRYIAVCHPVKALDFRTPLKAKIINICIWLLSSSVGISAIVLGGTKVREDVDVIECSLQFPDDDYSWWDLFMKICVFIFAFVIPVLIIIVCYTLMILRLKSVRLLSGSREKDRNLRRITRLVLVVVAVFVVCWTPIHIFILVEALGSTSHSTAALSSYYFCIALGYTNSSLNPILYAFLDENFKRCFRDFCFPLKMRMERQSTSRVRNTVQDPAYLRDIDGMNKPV

Beta-galactosidase = Beta-galactosidase (Escherichia coli, UniProt Q8VNN2); format: functional
Nonstructural protein 1 = Nonstructural protein 1 (Influenza A virus, UniProt Q194T2); format: functional, Influenza A virus (A/California/07/2009(H1N1))
[15] = target: Matrix metalloproteinase-14 (Homo sapiens, UniProt P50281); assay: Dose Response confirmation of uHTS hits for a small molecule inhibitors of MT1-MMP activation in a fluorescence assay set 1.; format: functional
[16] = target: T5, Kappa-type opioid receptor; format: functional; remark: listed apart in the source
[17] = viability loss in HeLa cells – cytotoxicity control for MgcRacGAP inhibitor project, dose response (AID 624300); format: functional
[18] = target: Mitogen-activated protein kinase 10 (Homo sapiens, UniProt P53779); assay: Dose response biochemical screening assay for inhibitors of c-Jun N-Terminal Kinase 3 (JNK3). [Related pubchem assays: 746 ]
Mitogen-activated protein kinase 10, sequence (P53779 whole entry): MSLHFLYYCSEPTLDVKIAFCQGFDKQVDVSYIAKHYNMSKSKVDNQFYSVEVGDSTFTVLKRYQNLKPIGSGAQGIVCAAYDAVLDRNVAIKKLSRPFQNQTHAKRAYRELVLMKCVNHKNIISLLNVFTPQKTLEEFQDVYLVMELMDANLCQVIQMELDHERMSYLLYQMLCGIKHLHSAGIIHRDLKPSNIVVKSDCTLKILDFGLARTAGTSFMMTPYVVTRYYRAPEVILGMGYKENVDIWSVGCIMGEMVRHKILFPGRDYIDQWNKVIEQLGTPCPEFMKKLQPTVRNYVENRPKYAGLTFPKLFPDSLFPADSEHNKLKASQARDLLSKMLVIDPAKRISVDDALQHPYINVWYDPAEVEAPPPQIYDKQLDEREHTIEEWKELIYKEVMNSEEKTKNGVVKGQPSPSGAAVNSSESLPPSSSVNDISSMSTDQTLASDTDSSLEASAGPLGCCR

[19] = target: T6, Mannose-6-phosphate isomerase (Homo sapiens, UniProt P34949); assay: phosphomannose isomerase inhibition – biochemical, fluorescence intensity, confirmation (AID 1535)
T6 sequence (P34949 whole entry): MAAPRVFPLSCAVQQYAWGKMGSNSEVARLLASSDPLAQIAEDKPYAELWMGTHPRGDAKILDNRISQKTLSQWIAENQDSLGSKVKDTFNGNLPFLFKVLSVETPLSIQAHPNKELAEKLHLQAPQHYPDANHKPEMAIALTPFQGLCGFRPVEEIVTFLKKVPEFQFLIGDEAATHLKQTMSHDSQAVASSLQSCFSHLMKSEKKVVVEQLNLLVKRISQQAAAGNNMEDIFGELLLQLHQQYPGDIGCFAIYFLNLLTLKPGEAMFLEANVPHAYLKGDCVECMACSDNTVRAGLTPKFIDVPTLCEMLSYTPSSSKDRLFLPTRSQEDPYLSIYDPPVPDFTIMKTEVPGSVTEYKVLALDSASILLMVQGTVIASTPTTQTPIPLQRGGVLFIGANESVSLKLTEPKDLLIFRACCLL

Phosphomannomutase 2 = Phosphomannomutase 2 (Homo sapiens, UniProt O15305); assay: Counter screen SAR assay for PMM2 inhibitors via a fluorescence intensity assay. [Related pubchem assays (depositor defined):AID1545, AID1574]
Cytochrome P450 2D6 = Cytochrome P450 2D6 (Homo sapiens, UniProt P10635);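 further: CYP2D6 member of a cytochrome P450 panel assay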
Cytochrome P450 2D6, sequence (P10635 whole entry): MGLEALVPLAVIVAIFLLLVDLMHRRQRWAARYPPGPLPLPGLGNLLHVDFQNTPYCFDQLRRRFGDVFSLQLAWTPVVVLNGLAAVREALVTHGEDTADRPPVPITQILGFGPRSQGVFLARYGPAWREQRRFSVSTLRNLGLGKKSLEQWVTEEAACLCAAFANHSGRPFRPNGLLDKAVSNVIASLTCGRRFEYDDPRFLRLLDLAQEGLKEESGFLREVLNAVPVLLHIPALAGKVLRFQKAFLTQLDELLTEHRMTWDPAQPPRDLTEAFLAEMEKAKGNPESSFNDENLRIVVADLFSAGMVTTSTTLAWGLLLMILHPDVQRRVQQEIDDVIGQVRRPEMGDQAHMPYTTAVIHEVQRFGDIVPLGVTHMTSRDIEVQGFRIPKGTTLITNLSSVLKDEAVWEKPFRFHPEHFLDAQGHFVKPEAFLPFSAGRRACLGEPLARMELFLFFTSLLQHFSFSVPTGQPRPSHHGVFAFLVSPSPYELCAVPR

Cytochrome P450 1A2 = target: T7, Cytochrome P450 1A2 (Homo sapiens, UniProt P05177);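 further: PubChem cytochrome P450 panel assay, CYP1A2 panel member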
T7 sequence (P05177 whole entry): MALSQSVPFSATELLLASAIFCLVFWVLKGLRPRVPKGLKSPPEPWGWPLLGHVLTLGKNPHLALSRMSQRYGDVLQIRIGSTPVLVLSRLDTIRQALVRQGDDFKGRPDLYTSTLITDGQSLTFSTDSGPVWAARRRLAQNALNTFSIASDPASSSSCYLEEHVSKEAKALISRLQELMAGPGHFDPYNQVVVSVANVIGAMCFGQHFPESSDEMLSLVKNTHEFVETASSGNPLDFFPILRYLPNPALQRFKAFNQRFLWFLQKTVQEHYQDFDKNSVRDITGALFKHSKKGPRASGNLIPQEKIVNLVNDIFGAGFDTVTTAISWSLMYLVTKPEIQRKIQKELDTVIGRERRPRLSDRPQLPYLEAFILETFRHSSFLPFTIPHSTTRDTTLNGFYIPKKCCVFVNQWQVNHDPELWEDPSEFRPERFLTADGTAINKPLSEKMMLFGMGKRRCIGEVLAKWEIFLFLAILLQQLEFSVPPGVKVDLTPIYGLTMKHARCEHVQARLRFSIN

INS1 = assay: INS-1E survival protection against cytokine death – cell-based, luminescence, retest, dose response (AID 449756); format: functional; settings: Rattus norvegicus;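 further: cell death triggered by IL-1 beta plus TNF-alpha plus IFN-gamma mixture; protective hits raise ATP signal compared with cytokine alone wells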
[20] = target: T6, Mannose-6-phosphate isomerase; assay: MPI inhibition at elevated mannose 6-phosphate – biochemical, fluorescence intensity, high mannose 6-phosphate, primary screen (AID 1220)
[21] = target: Induced myeloid leukemia cell differentiation protein Mcl-1 (Homo sapiens, UniProt Q07820); format: functional
Induced myeloid leukemia cell differentiation protein Mcl-1, sequence (Q07820 whole entry): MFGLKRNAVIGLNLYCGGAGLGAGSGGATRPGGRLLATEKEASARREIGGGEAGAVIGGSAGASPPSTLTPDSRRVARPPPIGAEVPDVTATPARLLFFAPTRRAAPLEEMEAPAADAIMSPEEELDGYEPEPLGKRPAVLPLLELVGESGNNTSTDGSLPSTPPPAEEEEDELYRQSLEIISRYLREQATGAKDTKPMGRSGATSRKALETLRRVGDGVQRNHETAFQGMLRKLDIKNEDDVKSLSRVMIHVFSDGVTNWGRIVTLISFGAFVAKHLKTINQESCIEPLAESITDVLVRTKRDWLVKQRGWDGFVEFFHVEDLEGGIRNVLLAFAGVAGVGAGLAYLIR

## O=c1oc2cc(O)c(Cl)cc2c2ccccc12
[1]
  EC50: > 79.4 µM (inactive)
[2]
  IC50: 1.39 µM (active)
[3]
  IC50: > 39.8 µM (not active)
[4]
  EC50: > 79.4 µM (not active)
[5]
  EC50: 3.81 µM (active)

## O=C(CCN1C(=O)C2C3C=CC(C3)C2C1=O)Nc1ccccn1 (stereo not given)
[6]
  IC50: > 64 µM (inactive)

## CC(=O)NS(=O)(=O)c1ccc(NC(=O)C2C3C=CC(C3)C2C(=O)O)cc1 (stereo not given)
[7]
  IC50: > 79.4 µM (inactive)
[8]
  IC50: > 79.4 µM (inactive)
[9]
  IC50: > 79.4 µM (inactive)

## COc1ccc(CNC(=O)c2cc(-c3ccccc3O)[nH]n2)cc1
[10]
  EC50: > 100 µM (not active)
[7]
  IC50: > 79.4 µM (inactive)
[8]
  IC50: > 79.4 µM (inactive)
[9]
  IC50: > 79.4 µM (inactive)

## FC(F)Sc1ccc(NC(=S)NC(c2ccccc2)c2ccccc2)cc1
[11]
  IC50: 0.998 µM (active)
[12]
  IC50: > 100 µM (inactive)
[13]
  IC50: 41.1 µM (active)
Streptokinase A
  EC50: > 150 µM (not active)

## O=C(Nc1cccc2nsnc12)c1ccc(-c2ccc(Br)cc2)o1
SUMO-activating enzyme
  IC50: 9.92 µM (active)

## CC1=NN(c2ccccc2)C(=O)/C1=C/C=C/c1ccc(N(C)C)cc1
[14]
  IC50: > 32 µM
Beta-galactosidase
  EC50: 7.93 µM (active)
Nonstructural protein 1
  IC50: 3.14 µM (active)
[15]
  IC50: > 80 µM (inactive)
[16]
  IC50: 8.28 µM (active)
[17]
  CC50: 95.1 µM (active)

## CCOc1ccc(C(=O)C2=C(O)C(=O)N(c3cc(C)on3)C2c2ccccc2OC)cc1 (stereo not given)
[1]
  EC50: > 79.4 µM (inactive)
[18]
  IC50: > 93.1 µM (not active)
[4]
  EC50: > 79.4 µM (not active)
[5]
  EC50: > 26.5 µM (not active)

## CCc1nnc(/N=c2\ssnc2Cl)s1
[19]
  IC50: 13.1 µM (active)
Phosphomannomutase 2
  IC50: > 100 µM (inactive)

## COc1cccc(CNC(=O)CCNS(=O)(=O)c2ccc3[nH]c(=O)oc3c2)c1
[11]
  IC50: 13.9 µM (active)
[12]
  IC50: > 100 µM (inactive)
[13]
  IC50: 63.2 µM (active)

## Cc1ccc(N2C(=O)c3[nH]nc(C)c3C2c2ccccn2)cc1 (stereo not given)
Cytochrome P450 2D6
  AC50: inconclusive

## O=C(O)[C@@H]1[C@@H](C(=O)O)[C@]23C[C@@]2(C(=O)O)[C@]2(C(=O)O)CCC3=C3CCCC312
Cytochrome P450 2D6
  AC50: inconclusive
Cytochrome P450 1A2
  AC50: 2.51 µM (inconclusive)

## CCN1c2ccccc2N(C)C1(C)c1ccccc1 (stereo not given)
INS1
  AC50: 2.14 µM (active)
[20]
  IC50: 13.7 µM (active)
[6]
  IC50: 49.4 µM (inactive)
[21]
  IC50: 9.19 µM (active)
